Reference: patent publication US9388126B2, “Sigma receptor ligands and methods of modulating cellular protein homeostasis using same” (Drexel University, priority 2012, dated 2016)

Legend:
Assay type in all cases: cell-based, human
[1] = test system: MDA-MB-468 breast adenocarcinoma cells; test: LC3 lipidation (LC3II) immunoblot; details: 24 hours
Protocol: Cells were lysed and proteins extracted in a modified RIPA buffer (25 mM Tris-HCl pH 7.6, 150 mM NaCl, 1% NP-40, 1% sodium deoxycholate and 0.1% SDS) supplemented with 10% glycerol (volume/volume), complete protease inhibitor cocktail (Roche), and Halt phosphatase inhibitor cocktail (Pierce). Approximately 10-20 μg of detergent soluble protein were resolved on NOVEX 10-20% polyacrylamide Tris-glycine gels (InVitrogen). Immunoblots were performed in a 20 mM Tris-buffered 137 mM saline solution (pH 7.6) containing 0.1% Tween-20 (polyoxyethylene (20) sorbitan monolaurate) and 5% (weight/volume) blotting grade non-fat dry milk (BioRad). The Lumigen PS-3 enhanced chemiluminescence kit (GE Healthcare) was used to reveal immunoblotted proteins.
Initially, an established immunoblot-based assay to detect microtubule associated protein light chain 3 (LC3) lipidation was used to test for the activation of autophagy. […] Since transient transfections can produce spurious GFP-LC3 aggregates, stable GFP-LC3 transfected populations of MDA-MB-468 (GFP-LC3) were generated. These cells were treated for 24 hours with increasing concentrations of Sigma receptor antagonists and agonists, and were compared to basal and DMSO treated controls (FIGS. 4B & 4C).

MDA-MB-468 cells = test: Cell size by flow cytometry (mean FSC-H, G1 phase); details: 10 μM
Protocol: FIG. 11 is a graph illustrating decrease in MDAMB468 cell size associated with the Sigma1 antagonist treatment. MDA-MB-468 cells were treated for 24 hours with DMSO (control), 10 μM IPAG (antagonist), or 10 μM PRE084 (agonist). Cell size was quantitated by flow cytometry, using a Becton Dickinson FACS Calibur flow cytometer with Cell Quest software. The mean forward scatter height (FSC-H) of the G1-phase population was determined as a measure of relative cell size. Single cells were gated away from aggregated cells using an FL2-width versus FL-2 area dot plot. Mean FSC-H±S.E. was calculated from at least 4 independent determinations. For each FSC-H determination, FACS analysis was performed on 10,000 single cells. The mean FSC-H of DMSO (control) and PRE084 treated MDA-MB-468 measured 370±6 and 372±7, respectively, whereas the mean FSC-H of IPAG treated MDA-MB-468 cells was 323±4. ** P<0.01 for IPAG compared to DMSO and IPAG compared to PRE084.
FIG. 31A is a differential interference contrast (DIC) image of MDA-MB-468 breast adenocarcinoma cells treated for ˜20 hours with DMSO (drug vehicle control), 10 μM IPAG (antagonist) or 10 μM PRE084 (agonist). A twenty-micron bar is shown in each image. Data are presented as mean±SEM. FIG. 31B is a graph illustrating the finding that IPAG diminished the mean cell size (FSC-H) of MDA-MB-468 breast tumor cells in a time-responsive manner. The mean FSC-H of 370±5 at to decreased to 323±4 after 24 hours of IPAG treatment and to 267±2 after 48 hours of treatment. Two-tailed t-tests were performed to determine statistical significance. For IPAG treatment compared to control (DMSO) and Sigma agonists (SKF and PRE084), P=0.0002 at d1 and P=0.00013 at d2. Data were generated from three to five independent determinations for each time-point. […] T-47D were treated for 24 h with 1 and 10 μM IPAG, and mean FSC-H was measured. […] For FIGS. 31B-31E, the mean FSC-H was determined for each cell cycle population (i.e., G1, S, G2/M), and data is shown for G1 phase cells. […]

[2] = test system: MCF-7, T47D, DU145, PC3, HepG2 and Panc1 cells; test: LC3BII immunoblot in a range of tumor cell lines; details: 10 μM, 24 hours
Protocol: FIG. 36, comprising FIGS. 36A-36C, illustrates Sigma1 antagonist associated autophagy. FIG. 36A, comprises representative images of translocation of GFP-tagged LC3 (LC3-GFP) into autophagosomes in MDA-MB-468 (MDA468) breast adenocarcinoma cells. Only antagonist-treated MDA-MB-468 cells presented LC3-GFP translocation to autophagosomes: […]. […] The images are representative of at least 80 fields for each treatment condition. FIG. 36B is an image of an immunoblot illustrating the finding that formation of GFP-LC3II the formation of GFP-LC3 positive punctae, an indicator of autophagosome formation. Protein extracts from MDA-MB-468 cells stably transfected with and expressing GFP-LC3, treated for 24 hours with 10 μM of the indicated Sigma1 ligand. FIG. 36C comprises images of immunoblots illustrating that increased levels of the microtubule associated protein light chain 3BII isoform (LC3BII) is another broadly used indicator of activated autophagy. […] Legend: MCF-7 (breast adenocarcinoma), T47D (breast adenocarcinoma), DU145 (prostate adenocarcinoma), PC3 (prostate adenocarcinoma), HepG2 (hepatocellular carcinoma), and Panc1 (pancreatic adenocarcinoma).

N=C(Nc1ccc(I)cc1)NC1C2CC3CC(C2)CC1C3 (centres unmarked) [IPAG, 1-(4-iodophenyl)-3-(2-adamantyl)guanidine]
conversion of LC3 to LC3II (autophagosome formation) ([1]; 10 μM): converted LC3 to LC3II
EC50 ([1]; Homo sapiens, MDA-MB-468, two independent determinations, read-out: mean EC50 of LC3 lipid conjugation (LC3II induction)): 7 µM
mean FSC-H (relative cell size) (MDA-MB-468 cells; 24 hours): 323±4
mean FSC-H (relative cell size) (MDA-MB-468 cells; 48 hours): 267±2
LC3BII levels [2]: salient induction of LC3BII levels
